# Molecular target: Cystic fibrosis transmembrane conductance regulator (Homo sapiens, UniProt P13569, F508DEL)
# Test: Modulation of CFTR F508 deletion mutant expressed in HBE cells assessed as change in short circuit current incubated for 18 to 24 hrs in presence of forskolin, amiloride and human serum by voltage-clamp based chamber assay
# Assay type: cell-based
# Chain of Cystic fibrosis transmembrane conductance regulator (P13569 as listed by the source): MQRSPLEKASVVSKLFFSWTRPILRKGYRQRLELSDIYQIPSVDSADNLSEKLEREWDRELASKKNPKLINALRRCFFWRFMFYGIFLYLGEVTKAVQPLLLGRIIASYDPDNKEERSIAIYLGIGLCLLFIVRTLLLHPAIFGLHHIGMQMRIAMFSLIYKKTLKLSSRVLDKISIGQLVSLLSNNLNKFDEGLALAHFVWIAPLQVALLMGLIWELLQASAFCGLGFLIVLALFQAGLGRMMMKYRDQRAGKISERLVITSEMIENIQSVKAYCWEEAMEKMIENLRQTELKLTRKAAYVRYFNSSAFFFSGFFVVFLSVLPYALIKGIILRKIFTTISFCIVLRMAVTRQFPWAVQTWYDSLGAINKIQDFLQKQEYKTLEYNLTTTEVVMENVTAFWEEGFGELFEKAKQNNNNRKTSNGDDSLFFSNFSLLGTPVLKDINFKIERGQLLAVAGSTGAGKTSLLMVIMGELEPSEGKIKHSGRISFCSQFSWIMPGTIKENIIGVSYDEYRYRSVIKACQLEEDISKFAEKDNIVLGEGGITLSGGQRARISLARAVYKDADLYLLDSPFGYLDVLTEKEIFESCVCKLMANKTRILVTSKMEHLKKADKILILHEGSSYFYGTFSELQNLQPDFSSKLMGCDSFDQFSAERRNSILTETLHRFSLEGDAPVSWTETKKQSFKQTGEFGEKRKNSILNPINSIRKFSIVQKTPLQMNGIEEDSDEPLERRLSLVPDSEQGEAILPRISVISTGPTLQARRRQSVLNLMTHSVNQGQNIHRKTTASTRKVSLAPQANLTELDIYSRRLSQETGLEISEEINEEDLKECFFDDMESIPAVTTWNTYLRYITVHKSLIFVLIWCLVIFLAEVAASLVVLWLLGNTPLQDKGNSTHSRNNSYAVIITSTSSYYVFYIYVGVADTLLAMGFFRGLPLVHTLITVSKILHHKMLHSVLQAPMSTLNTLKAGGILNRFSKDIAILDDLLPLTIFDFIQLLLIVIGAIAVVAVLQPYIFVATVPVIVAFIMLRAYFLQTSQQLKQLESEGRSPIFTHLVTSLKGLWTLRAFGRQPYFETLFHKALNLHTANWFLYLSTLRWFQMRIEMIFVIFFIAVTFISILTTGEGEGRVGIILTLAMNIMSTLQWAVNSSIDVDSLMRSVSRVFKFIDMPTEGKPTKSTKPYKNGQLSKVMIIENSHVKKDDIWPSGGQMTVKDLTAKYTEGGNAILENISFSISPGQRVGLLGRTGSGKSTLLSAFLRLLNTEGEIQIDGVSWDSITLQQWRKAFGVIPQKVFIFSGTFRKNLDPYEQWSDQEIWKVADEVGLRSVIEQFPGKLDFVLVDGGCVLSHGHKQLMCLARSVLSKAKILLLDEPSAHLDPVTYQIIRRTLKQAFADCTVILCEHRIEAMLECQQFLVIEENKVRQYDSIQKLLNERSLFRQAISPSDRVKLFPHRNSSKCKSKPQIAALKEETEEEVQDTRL
row,SMILES,EC50
1,Nc1cc(C(F)(F)F)c2nc1-c1nnc(o1)[C@@](O)(C(F)(F)F)CCCCCCS2,< 500 nM
2,Nc1cc(C(F)(F)F)c2nc1-c1nnc(o1)[C@@](O)(C(F)(F)F)CCCCC[C@H](CO)O2,< 500 nM
3,CC1(C)CCCC[C@](O)(C(F)(F)F)C2=NN=C(O2)c2nc(c(C(F)(F)F)cc2N)OC1,< 500 nM

# Other lines, results leading:
row,EC50,SMILES
1,< 500 nM,[2H]C1CC[C@@H](C)Oc2nc(c(N)cc2C(F)(F)F)C2=NN=C(O2)[C@@](O)(C(F)(F)F)CC1[2H] (stereo partly specified)
2,< 500 nM,C[C@H]1CCCCC[C@](O)(C(F)(F)F)C2=NN=C(O2)c2nc(c(C(F)(F)F)cc2N)O1
3,< 500 nM,Nc1cc(C(F)(F)F)c2nc1-c1nnc(o1)C(O)(C(F)(F)F)CCCCCCO2 (stereo unspecified)

# — ChEMBL document CHEMBL5131525, “Novel CFTR Modulators for Treating Cystic Fibrosis” (ACS Med Chem Lett, 2022)
